# Source: US10570131B2, “Heterocyclic compounds and their use in preventing or treating bacterial infections” (MUTABILIS, priority 2015, dated 2020)
# Tests used:
# Assay type in all cases: cell-based
# P. aeruginosa UFR48 = assay: MIC of ceftazidime alone and in combination with compounds (synergy), broth microdilution; settings: Pseudomonas aeruginosa, UFR48, read-out: MIC of CAZ
# Experimental: (§1) Compounds of the present invention were assessed against genotyped bacterial strains alone or in combination with the β-lactam ceftazidime (CAZ). […] Briefly, compounds alone according to the invention were prepared in DMSO and spotted (2 μL each) on sterile polystyrene plates (Corning, 3788). […] Log phase bacterial suspensions were adjusted to a final density of 5×10^5 cfu/mL in cation-adjusted Mueller-Hinton broth (Becton-Dickinson) and added to each well (98 μL). Microplates were incubated for 16-20 h at 35° C. in ambient air. The MIC of the compounds was defined as the lowest concentration of said compounds that prevented bacterial growth as read by visual inspection.
# K. pneumoniae 6299 [1] = assay: as above
# Experimental: as §1
# E. coli UFR18 = assay: MIC of compounds alone, broth microdilution; settings: strain UFR18 (CTX-M-15, OXA-204)
# Experimental: as §1
# E. cloacae P99 [2] = assay: MIC of compounds alone, broth microdilution; settings: strain P99 (AmpC)
# Experimental: as §1
# E. coli UFR32 = assay: MIC of compounds alone, broth microdilution; settings: strain UFR32 (TEM-1, VEB-1, OXA-10)
# Experimental: as §1
# K. pneumoniae UFR24 = assay: MIC of compounds alone, broth microdilution; settings: strain UFR24 (TEM-1, SHV-2, SHV-11, OXA-1, OXA-48, OXA-47)
# Experimental: as §1
# E. cloacae UFR85 = assay: MIC of compounds alone, broth microdilution; settings: strain UFR85 (TEM-1, CTX-M-15, derepressed AmpC)
# Experimental: as §1
# E. coli UFR61O = assay: MIC of compounds alone, broth microdilution; settings: strain UFR61O (TEM-1, KPC-2)
# Experimental: as §1
# K. pneumoniae UFR77 = assay: MIC of compounds alone, broth microdilution; settings: strain UFR77 (CMY-2)
# Experimental: as §1
# E. cloacae UFR70 = assay: MIC of compounds alone, broth microdilution; settings: strain UFR70 (TEM-1, CTX-M-15, CMY-2, OXA-1, Porin loss)
# Experimental: as §1
# E. coli UFR74 = assay: MIC of compounds alone, broth microdilution; settings: strain UFR74 (SHV-1, DHA-1)
# Experimental: as §1
# E. coli 190317 [3] = assay: MIC of compounds alone, broth microdilution; settings: strain 190317 (TEM-1, SHV-12, CTX-M-15, OXA-1)
# Experimental: as §1
# E. cloacae UFR38 = assay: MIC of compounds alone, broth microdilution; settings: strain UFR38 (CTX-M-15, NDM-1)
# Experimental: as §1
# P. aeruginosa CIP107051 [4] = assay: MIC of compounds alone, broth microdilution; settings: strain CIP107051 (TEM-24)
# Experimental: as §1
# K. oxytoca UFR21 = assay: MIC of compounds alone, broth microdilution; settings: strain UFR21 (TEM-1, CTX-M-15, OXA-48)
# Experimental: as §1
# E. coli UFR52 = assay: MIC of compounds alone, broth microdilution; settings: strain UFR52 (TEM-1, SHV-12, IMP-8)
# Experimental: as §1
# C. murliniae 210102 = assay: MIC of compounds alone, broth microdilution; settings: strain 210102 (VIM-4)
# Experimental: as §1
# E. cloacae 260508 = assay: MIC of compounds alone, broth microdilution; settings: strain 260508 (TEM-1, CTX-M-15)
# Experimental: as §1
# K. pneumoniae UFR68 = assay: MIC of compounds alone, broth microdilution; settings: strain UFR68 (TEM-1, SHV-11, CTX-M-15, KPC-3)
# Experimental: as §1
# K. pneumoniae 160143 = assay: MIC of compounds alone, broth microdilution; settings: strain 160143 (TEM-1, SHV-1, CTX-M-15, KPC-2, OXA-1)
# Experimental: as §1
# K. pneumoniae 200047 = assay: MIC of compounds alone, broth microdilution; settings: strain 200047 (TEM-1, SHV-32, CTX-M-15, OXA-1)
# Experimental: as §1
# E. coli RGN238 = assay: MIC of compounds alone, broth microdilution; settings: strain RGN238 (OXA-1)
# Experimental: as §1
# P. aeruginosa CIP105250 [5] = assay: microbe, parasite or virus in culture; settings: strain CIP105250 (OXA-15)
# Experimental: as §1
# E. coli 131119 = assay: microbe, parasite or virus in culture; settings: strain 131119 (TEM-1, OXA-48)
# Experimental: as §1
# K. pneumoniae BAA-1898 [6] = assay: microbe, parasite or virus in culture; settings: strain BAA-1898 (TEM-1, SHV-11, SHV-12, KPC-2)
# Experimental: as §1
# K. pneumoniae 6299 [7] = assay: microbe, parasite or virus in culture; settings: strain 6299 (TEM-1, SHV-11, OXA-163)
# Experimental: as §1
# E. cloacae P99 [8] = assay: MIC of ceftazidime alone and in combination with compounds (synergy), broth microdilution; settings: MIC of ceftazidime with compound fixed at 4 μg/mL; strain P99 (AmpC)
# E. coli 190317 [9] = assay: as above; settings: MIC of ceftazidime with compound fixed at 4 μg/mL; strain 190317 (TEM-1, SHV-12, CTX-M-15, OXA-1)
# P. aeruginosa CIP105250 [10] = assay: as above; settings: MIC of ceftazidime with compound fixed at 4 μg/mL; strain CIP105250 (OXA-15)
# Experimental: as §1
# K. pneumoniae BAA-1898 [11] = assay: as above; settings: MIC of ceftazidime with compound fixed at 4 μg/mL; strain BAA-1898 (TEM-1, SHV-11, SHV-12, KPC-2)
# Experimental: as §1
# P. aeruginosa CIP107051 [12] = assay: as above; settings: MIC of ceftazidime with compound fixed at 4 μg/mL; strain CIP107051 (TEM-24)
# Experimental: as §1
compound,measurement,setting,value
"CC(C)(O/N=C(\C(=O)N[C@@H]1C(=O)N2C(C(=O)[O-])=C(C[n+]3ccccc3)CS[C@H]12)c1csc(N)n1)C(=O)O [CAZ, ceftazidime, reference compound]",MIC,P. aeruginosa UFR48,256 µg/mL
same,MIC,"K. pneumoniae 6299 [1]; Klebsiella pneumoniae, 6299, read-out: MIC of CAZ",256 µg/mL
"NCCON=C1C[C@@H](C(N)=O)N2C[C@@H]1N(OS(=O)(=O)[O-])C2=O.O=C(O)C(F)(F)F.[Na+] [Example 4, sodium and 2,2,2-trifluoroacetate [(2S, 5S)-4-(2-ammoniumethoxyimino)-2-carbamoyl-7-oxo-1,6-diazabicyclo[3.2.1]octan-6-yl] sulfate]",MIC compounds of the invention alone,E. coli UFR18,4 µg/mL
same,MIC compounds of the invention alone,E. cloacae P99 [2],16 µg/mL
same,MIC compounds of the invention alone,E. coli UFR32,4 µg/mL
same,MIC compounds of the invention alone,K. pneumoniae UFR24,>32 µg/mL
same,MIC compounds of the invention alone,E. cloacae UFR85,>32 µg/mL
same,MIC compounds of the invention alone,E. coli UFR61O,>32 µg/mL
same,MIC compounds of the invention alone,K. pneumoniae UFR77,>32 µg/mL
same,MIC compounds of the invention alone,E. cloacae UFR70,>32 µg/mL
same,MIC compounds of the invention alone,E. coli UFR74,>32 µg/mL
same,MIC compounds of the invention alone,E. coli 190317 [3],4 µg/mL
same,MIC compounds of the invention alone,E. cloacae UFR38,2 µg/mL
same,MIC compounds of the invention alone,P. aeruginosa CIP107051 [4],32 µg/mL
same,MIC compounds of the invention alone,K. oxytoca UFR21,>32 µg/mL
same,MIC compounds of the invention alone,E. coli UFR52,8 µg/mL
same,MIC compounds of the invention alone,C. murliniae 210102,>32 µg/mL
same,MIC compounds of the invention alone,E. cloacae 260508,16 µg/mL
same,MIC compounds of the invention alone,K. pneumoniae UFR68,>32 µg/mL
same,MIC compounds of the invention alone,K. pneumoniae 160143,>32 µg/mL
same,MIC compounds of the invention alone,K. pneumoniae 200047,>32 µg/mL
same,MIC compounds of the invention alone,E. coli RGN238,>32 µg/mL
same,MIC compounds of the invention alone,P. aeruginosa CIP105250 [5],>32 µg/mL
same,MIC compounds of the invention alone,E. coli 131119,>32 µg/mL
same,MIC compounds of the invention alone,K. pneumoniae BAA-1898 [6],>32 µg/mL
same,MIC compounds of the invention alone,K. pneumoniae 6299 [7],>32 µg/mL
same,"MIC, combination of CAZ and compounds of the invention at 4 μg/mL",E. cloacae P99 [8],0.25 µg/mL
same,"MIC, combination of CAZ and compounds of the invention at 4 μg/mL",E. coli 190317 [9],<0.25 µg/mL
same,"MIC, combination of CAZ and compounds of the invention at 4 μg/mL",P. aeruginosa CIP105250 [10],8 µg/mL
same,"MIC, combination of CAZ and compounds of the invention at 4 μg/mL",K. pneumoniae BAA-1898 [11],≤0.125 µg/mL
same,"MIC, combination of CAZ and compounds of the invention at 4 μg/mL",P. aeruginosa CIP107051 [12],8 µg/mL
same,"MIC, combination of CAZ and compounds of the invention at 4 μg/mL","K. pneumoniae 6299 [1]; MIC of ceftazidime with compound fixed at 4 μg/mL, strain 6299 (TEM-1, SHV-11, OXA-163)",0.25 µg/mL
